In patent publication US7122666B2, “Heteroaryl-substituted pyrrole derivatives, their preparation and their therapeutic uses” (Sankyo Company, Limited, priority 1999, dated 2006):

Legend:
[1] = system: adjuvant-induced arthritis; test: Activity in preventing the development of adjuvant-induced arthritis in vivo (Test Examples 4 and 4′); settings: Table 10′; Lewis rat, oral once a day from day 0 to day 20, inhibition of swelling of injected foot on day 21
Procedure: The test was performed according to the method described by Winder et al. (Arthritis Rheum., 12, 472–482, 1969). Heat-killed dried Mycobacterium butyricum (Difco Laboratories, Lot 679123) was ground on an agate mortar, and was then suspended in dry-sterilised liquid paraffin (first grade, Wako Pure Chemical Industries, Ltd.) to make a 2 ml suspension. The resulting suspension was then sonicated and used as an adjuvant. Arthritis was induced by the intradermal injection of the adjuvant (100 μg of heat killed dried bacterium/0.05 ml of paraffin/paw) into the heel of the right hind paw of a Lewis rat (male, age 8 weeks, Japan Charles River). […] The volumes of the swollen feet (adjuvant-injected right hind foot volume—non-injected left hind foot volume) were calculated. The percent inhibition of swelling of the injected foot of the treated animals as compared to that of the control animals on day 21 was calculated as follows. […] ID50 values were calculated using this curve. […] […]

TNFα production = test: Inhibition of the production of TNFα in vivo (Test Examples 2 and 2′); settings: Table 9′; Balb/c mice, oral administration 30 minutes before intravenous lipopolysaccharide, plasma TNFα 1 hour after LPS
Procedure: This test was performed according to the method of Ochalski, et al. [S. J. Ochalski, D. A. Hartman, M. T. Belfast, T. L. Walter, K. B. Glaser and R. P. Carlson; Inhibition of endotoxin-induced hypothermia and serum TNF-α levels in CD-1 mice by various pharmacological agents: Agents Actions 39, C52–C54 (1993)].
The production of TNFα was induced in mice by the intravenous injection of lipopolysaccharide (E. coli O26: B6 origin, Difco) which was prepared to a concentration of 0.045 mg/ml using physiological saline. The saline preparation of lipopolysaccharide was administered at the rate of 10 ml/l kg of body weight into the caudal vein of Balb/c mice (males, age 5–7 weeks, body weight: approx. 22 g, Japan Charles River) which had been fasted overnight starting on the day before the experiment. One hour after administration, the mice were laparotomized under ether anaesthesia and blood was collected from the abdominal vena cava. Blood collection was performed using a 1 ml volume disposable syringe equipped with a 23G needle which had been moistened with heparin on the inside wall. Following blood collection, the blood was immediately transferred to a 1.5 ml volume Eppendorf tube and centrifuged at 4° C. and 14,000 rpm to separate the plasma. This plasma was then stored at −20° C. until measurement of TNFα. The measurement of the amount of TNFα was performed with a commercially available enzyme immunoassay (ELISA) kit (Mouse TNFα ELISA KIT, Genzyme).
To determine the inhibitory activity of the test compounds, each test compound was suspended in a 0.5% tragacanth solution and then administered orally to the Balb/c mice at the rate of 10 ml/1 kg of body weight 30 minutes before injection of lipopolysaccharide. The level of TNFα production was then determined as described above. In the control group, 0.5% tragacanth solution was administered at the rate of 10 ml/1 kg of body weight to the test mice instead of the solutions of the test compounds. A minimum of 3 dose levels of the test compound was administered to groups of 5 test mice for each test compound. The inhibitory rate relative to the control group was calculated for each dose level. From the inhibitory rates and the dosages, ID50 values were calculated by the least squares method.
The production of TNFα was induced in mice by the intravenous injection of lipopolysaccharide (E. coli O26: B6 origin, Difco) which was prepared to a concentration of 0.045 mg/ml using physiological saline. […]
To determine the inhibitory activity of the test compounds, each test compound was suspended in a 0.5% tragacanth solution and then administered orally to the Balb/c mice at the rate of 10 ml/1 kg of body weight 30 minutes before injection of lipopolysaccharide. The level of TNFα production was then determined as described above. […]

## CC1C[C@H]2C=C(c3c[nH]c(-c4ccc(F)cc4)c3-c3ccncc3)CCN2C1 (stereo partly drawn) [Example 16′, 2-(4-Fluorophenyl)-4-[(8aS)-2-methyl-1,2,3,5,6,8a-hexahydroindolizin-7-yl]-3-(pyridin-4-yl)1H-pyrrole]
[1]
  Activity in Preventing the Development of Adjuvant-Induced Arthritis in vivo IC50: 1.2 mg/kg
TNFα production
  Inhibitory Effect on TNFα Production (in vivo) IC50: 0.71 mg/kg
